Results: patent US20090007283A1, “Transgenic Rodents Selectively Expressing Human B1 Bradykinin Receptor Protein” (priority 2003, published 2009)

Columns and labels:
[1] = biological target: T1, human B1 bradykinin receptor (human) (UniProt P46663); experiment: cell-based or functional assay
T1 sequence (looked up): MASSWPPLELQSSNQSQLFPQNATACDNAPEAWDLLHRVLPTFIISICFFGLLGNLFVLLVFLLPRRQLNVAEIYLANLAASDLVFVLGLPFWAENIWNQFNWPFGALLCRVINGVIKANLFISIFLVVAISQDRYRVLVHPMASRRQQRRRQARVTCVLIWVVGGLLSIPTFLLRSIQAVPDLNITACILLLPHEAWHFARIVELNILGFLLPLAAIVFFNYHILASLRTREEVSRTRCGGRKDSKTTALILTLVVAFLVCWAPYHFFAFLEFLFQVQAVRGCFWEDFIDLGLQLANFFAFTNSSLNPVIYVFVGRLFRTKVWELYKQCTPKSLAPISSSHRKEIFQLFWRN

B1 receptor = biological target: T2, B1 receptor (Mus musculus, UniProt Q61125); experiment: DAK response of the stomach fundus in wild type mice
T2 construct: from tissue; host or cells: stomach fundus of wild type mice
T2 sequence (Q61125 1-334): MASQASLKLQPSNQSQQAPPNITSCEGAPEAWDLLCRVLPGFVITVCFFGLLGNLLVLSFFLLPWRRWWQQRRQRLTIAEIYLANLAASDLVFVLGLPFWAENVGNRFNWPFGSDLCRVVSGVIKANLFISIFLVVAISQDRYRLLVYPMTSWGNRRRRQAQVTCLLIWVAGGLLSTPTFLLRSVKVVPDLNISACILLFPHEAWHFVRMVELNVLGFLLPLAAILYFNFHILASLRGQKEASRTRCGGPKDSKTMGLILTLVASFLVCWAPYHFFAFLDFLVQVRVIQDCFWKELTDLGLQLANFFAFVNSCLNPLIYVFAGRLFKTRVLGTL
Description: This phenotype is detailed herein via a functional assay showing the effect of a selective antagonist of the human B1 receptor. […] Therefore, the transgenic mice of the present invention, including but not limited to the humanized mice exemplified herein, will be useful to evaluate the efficacy of human selective compounds in both in vitro and in vivo assays. The addition of exogenous agonist, or the natural release of endogenous agonist resulting from a stimulus, may activate the human receptor. The ability of human selective compounds to antagonize the activation of the receptor will permit a determination of the efficacy of the compound in these animal models. To this end, the humanized B1 transgenic models as described herein will be useful to screen any potential modulator of receptor activity (e.g., antagonists or agonists), including but not necessarily limited to peptides, proteins, or non-proteinaceous organic or inorganic molecules. The transgenic animals of the present invention provide for improved models to evaluate the efficacy of human selective compounds in both in non-human animal models, such as rodents humanized for expression of the B1 receptor. […] Even if successful, the properties of compounds selective for humans could not be assessed. […]

hb1 = biological target: T3, hb1 (Homo sapiens, UniProt P46663); experiment: binding data, hb1; details: human B1 receptor; kind of constant not given
T3 sequence (P46663 1-353): T1 sequence (looked up)

human B1 receptor = biological target: T4, human B1 receptor (Homo sapiens, UniProt P46663); experiment: Functional assay: DAK-induced contraction of fundus and ileum tissue from line 13 mice homozygous for the human B1 receptor gene
T4 construct: from tissue; host or cells: stomach fundus and ileum of line 13 mice homozygous for the human B1 receptor knock-in (targeting vector pB1R-KI2)
T4 sequence (P46663 1-353): T1 sequence (looked up)
Experimental: A functional assay was carried out twice on homozygous human b1 mouse fundus and ileum tissue to evaluate its B1 receptor activity in line 13, a mouse line homozygous for replacement of the mouse B1 gene with the human B1 receptor gene. A selective human B1 receptor compound (Compound #1) was tested for antagonistic activity against the receptor from these knock-in mice. Specifically, two homozygous mice were euthanized with CO2. Their stomach and ileum were removed and the fundic portion was divided in half by cutting an incision along the greater curvature. A medial longitudinal strip about 1 mm×0.6 cm was obtained by making cut along the midline incision. Two fundic strips were obtained from each stomach. The ileum was cut about 4 cm from the cecum. Each ileum is divided into two pieces and whole muscle was used. […] Each piece of ileum was tied one end to a glass rod with silk 4-0 and the other end to the Statham—Gould force transducer. One gram tension was applied to each tissue and contraction was recorded by a Hewlett-Packard 7758 recorder. All tissues receive 50 mM KCl at the end of 1 hr equilibrium for maximal response. The tissues are washed every 20 min for one hour. 30 nM of Compound #1 was added to two treated ileum or two treated fundus tissues and incubated for one hour. 0.1 μM M422 and 1 μM thiorphan are added to the bath 30 min before DAK dosing. A cumulative dose-response of DAK (10-^10M to 3×10^−5M) is carried out after pre-incubation.
DAK is diluted in Krebs solution. Full log dilution is made by adding 25 μl in […]. Compound #1 is diluted in DMSO.

rat b1 = biological target: T5, rat b1 (Rattus norvegicus, UniProt P97583); experiment: binding data, rat b1; details: rat B1 receptor; kind of constant not given
T5 sequence (P97583 1-337): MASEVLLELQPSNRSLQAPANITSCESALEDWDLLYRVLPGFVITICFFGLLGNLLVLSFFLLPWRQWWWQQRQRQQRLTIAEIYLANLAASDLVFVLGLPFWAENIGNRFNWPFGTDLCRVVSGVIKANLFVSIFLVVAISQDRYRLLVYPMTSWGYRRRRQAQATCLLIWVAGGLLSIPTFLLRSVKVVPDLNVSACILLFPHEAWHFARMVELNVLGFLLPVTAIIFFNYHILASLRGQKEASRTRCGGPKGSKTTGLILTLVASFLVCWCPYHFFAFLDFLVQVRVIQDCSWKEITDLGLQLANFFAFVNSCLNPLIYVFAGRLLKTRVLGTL

Molecule “des-Arg^10 kallidin (from UniProt P01042 380-388) (peptide)” has an EC50 of des-arg^10-kallidin, contraction of homozygous mouse ileum, Control (n = 2), Experiment #1 [1] of 4 nM.

In the case of `O=C(C[C@@H]1C(=O)NCCN1S(=O)(=O)c1cccc2c1NCCC2)NCCc1ccc(C2=NCCN2)cc1` [Compound #1], the “sensitivity of the DAK response to the human B1 selective antagonist” value (B1 receptor) is reported as “insensitive”, the Ki (hb1) is reported as 0.04 nM and the Kb (human B1 receptor; homozygous mouse fundus, Experiment #2 combined with Experiment #1 (n = 4)) is reported as 0.25 nM. For the same molecule, the Kb (human B1 receptor; homozygous mouse fundus, line 13, Experiment #1, 30 nM antagonist vs DAK) was 0.27 nM, the Kb (human B1 receptor; homozygous mouse fundus, line 13, Experiment #2, 30 nM antagonist vs DAK) was 0.23 nM and the Kb (human B1 receptor; homozygous mouse ileum, Experiment #2 combined with Experiment #1 (n = 4)) was 0.09 nM. The Kb (human B1 receptor; homozygous mouse ileum, line 13, Experiment #1, 30 nM antagonist vs DAK) was 0.11 nM, the Kb (human B1 receptor; homozygous mouse ileum, line 13, Experiment #2, 30 nM antagonist vs DAK) was 0.21 nM and the Ki (rat b1) was 591 nM.

In the case of “des-Arg^10 kallidin [des-arg^10-kallidin, reference compound]”, the DAK contractile response (human B1 receptor; Line #13 homozygous mice, compared with wild type) is reported as “full DAK contractile responses”.
